The results in this text go back to ChEMBL document CHEMBL1921686, “Molecular design, synthesis and bioactivity of glycosyl hydrazine and hydrazone derivatives: notable effects of the sugar moiety” (2011).

Format in all cases: functional
What all share (conditions): read-out: GI

In one assay the test system is BGC-823. Kind of assay: Antitumor activity against human BGC823 cells assessed as growth inhibition at 10 uM by SRB method.
The next assay has as its system Bel-7402. Kind of assay: Antitumor activity against human Bel7402 cells assessed as growth inhibition at 10 uM by SRB method. (In general: In SRB staining, fixed cells bind dye roughly in proportion to their protein.)
A further assay deals with KB. The assay is described as follows: Antitumor activity against human KB cells assessed as growth inhibition at 10 uM by SRB method.
A further assay relates to Phytophthora capsici. The assay is described as follows: Antifungal activity against Phytophthora capsici assessed as growth inhibition at 500 ug/mL by potted plant test.
Another assay relates to Fusarium oxysporum. The assay is described as follows: Antifungal activity against Fusarium oxysporum assessed as growth inhibition at 500 ug/mL by potted plant test.
A further assay concerns Corynespora cassiicola. Kind of assay: Antifungal activity against Corynespora cassiicola assessed as growth inhibition at 500 ug/mL by potted plant test.
The test system of another assay is Rhizoctonia solani. The assay is described as follows: Antifungal activity against Rhizoctonia solani assessed as growth inhibition at 500 ug/mL by potted plant test.

With `COc1ccccc1C(=O)N/N=C/c1ccc(-c2ccc(F)cc2F)o1`, the values for the inhibition of growth at 10 µM in the assay with BGC-823, in the assay on Bel-7402 and in the assay with KB were 35.9%, 1.69% and 10.1%, respectively. Further, the inhibition of growth at 500 µg/mL with Phytophthora capsici worked out at 20.9%; in the assay with Fusarium oxysporum, 9%; with Corynespora cassiicola, 38.5%; in the assay with Rhizoctonia solani it was 2%.

Regarding `O=C(N/N=C/c1ccc(-c2ccc(F)cc2F)o1)c1ccccc1O`, the inhibition of growth at 10 µM in the assay with BGC-823 came to 68.4%; in the assay with Bel-7402 it was 63.4%; in the assay with KB it was 61.8%. Further, the inhibition of growth at 500 µg/mL in the assay with Phytophthora capsici was determined as 52.8%; with Fusarium oxysporum, 8%; in the assay with Corynespora cassiicola, 27.7%; in the assay with Rhizoctonia solani it was 16.1%.

`O=C(N/N=C/c1ccc(-c2ccc(F)cc2F)o1)c1ccccc1S[C@@H]1O[C@H](CO)[C@@H](O)[C@H](O)[C@H]1O`: the inhibition of growth at 10 µM with BGC-823 is 18.4%; in the assay on Bel-7402, -0.67%; with KB it was -0.3%. Moreover, the inhibition of growth at 500 µg/mL in the assay with Phytophthora capsici amounted to 88.5%; in the assay on Fusarium oxysporum, 45.2%; in the assay on Corynespora cassiicola, 53.7%; in the assay with Rhizoctonia solani, 45.5%.

With `O=C(N/N=C/c1ccc(-c2ccc(F)cc2F)o1)c1ccccc1O[C@@H]1O[C@H](CO)[C@@H](O)[C@H](O)[C@H]1O`, the inhibition of growth at 10 µM in the assay on BGC-823 is 6.66%; in the assay with Bel-7402, -5.7%; in the assay with KB, 18.2%. Also, the inhibition of growth at 500 µg/mL in the assay with Phytophthora capsici came out at 85.5%; in the assay on Fusarium oxysporum, 0%; in the assay on Corynespora cassiicola, 50.8%; in the assay on Rhizoctonia solani it was 45.3%.

In the case of `O=C(N/N=C/c1ccc(-c2ccc(F)cc2F)o1)c1ccccc1S[C@@H]1O[C@H](CO)[C@H](O)[C@H](O)[C@H]1O`, the inhibition of growth at 10 µM was found to be 16.1% in the assay with BGC-823, 27.2% in the assay on Bel-7402 and 10.7% in the assay with KB. Besides, the inhibition of growth at 500 µg/mL with Phytophthora capsici was determined as 88.4%; in the assay on Fusarium oxysporum, 64.5%; in the assay on Corynespora cassiicola it was 39.4%; in the assay with Rhizoctonia solani, 24.9%.

For `O=C(N/N=C/c1ccc(-c2ccccc2Cl)o1)c1ccccc1S[C@@H]1O[C@H](CO)[C@@H](O)[C@H](O)[C@H]1O`, the inhibition of growth at 10 µM is 6.21% with BGC-823, 2.09% in the assay on Bel-7402 and 24.3% with KB. Moreover, the inhibition of growth at 500 µg/mL with Phytophthora capsici turned out to be 90%; in the assay with Fusarium oxysporum it was 8.06%; with Corynespora cassiicola it was 41.9%; in the assay on Rhizoctonia solani, 34.4%.

With `O=C(N/N=C/c1ccc(-c2ccccc2Cl)o1)c1ccccc1O[C@@H]1O[C@H](CO)[C@@H](O)[C@H](O)[C@H]1O`, the inhibition of growth at 10 µM in the assay with BGC-823 was 1.88%; in the assay with Bel-7402, -10.3%; with KB, 9.11%. The inhibition of growth at 500 µg/mL came to 90% in the assay on Phytophthora capsici, 64.5% in the assay on Fusarium oxysporum, 49.3% in the assay with Corynespora cassiicola and 33.3% with Rhizoctonia solani.

As to `O=C(N/N=C/c1ccc(-c2ccc(F)cc2F)o1)c1ccccc1S[C@@H]1O[C@H](CO)[C@@H](O[C@@H]2O[C@H](CO)[C@H](O)[C@H](O)[C@H]2O)[C@H](O)[C@H]1O`, the figures for the inhibition of growth at 10 µM with BGC-823, in the assay with Bel-7402 and with KB were -2.72%, -10.6% and 39.4%, respectively. Besides, the inhibition of growth at 500 µg/mL in the assay with Phytophthora capsici was 30%; in the assay on Fusarium oxysporum it was 74.2%; with Corynespora cassiicola, 45.6%; with Rhizoctonia solani, 10.7%.

`O=C(N/N=C/c1ccc(-c2ccccc2Cl)o1)c1ccccc1S[C@@H]1O[C@H](CO)[C@@H](O[C@@H]2O[C@H](CO)[C@H](O)[C@H](O)[C@H]2O)[C@H](O)[C@H]1O`: the results for the inhibition of growth at 10 µM with BGC-823, in the assay with Bel-7402 and in the assay on KB were 1.91%, 8.3% and -4.67%, respectively. Further, the inhibition of growth at 500 µg/mL in the assay with Phytophthora capsici amounted to 44.4%; with Fusarium oxysporum it was 40.3%; with Corynespora cassiicola, 41.6%; in the assay on Rhizoctonia solani it was 43.5%.

Take `N#Cc1c(Cl)c(Cl)c(Cl)c(C#N)c1Cl` [CHLOROTHALONIL]: the inhibition of growth at 500 µg/mL in the assay on Corynespora cassiicola was 83.9%.

On to `COc1cccc2c1C(=O)c1c(O)c3c(c(O)c1C2=O)C[C@@](O)(C(=O)CO)C[C@@H]3O[C@H]1C[C@H](N)[C@H](O)[C@H](C)O1` [DOXORUBICIN], for which the values for the inhibition of growth at 10 µM in the assay on BGC-823, with Bel-7402 and with KB were 51.2%, 6.53% and 45.1%, respectively.

Consider `CC12CC1(C)C(=O)N(c1cc(Cl)cc(Cl)c1)C2=O` (stereo not given) [PROCYMIDONE], for which, in the assay on Phytophthora capsici, the inhibition of growth at 500 µg/mL is 93.2%.

For `COC(=O)NC(=S)Nc1ccccc1NC(=S)NC(=O)OC` [THIOPHANATE METHYL], the inhibition of growth at 500 µg/mL in the assay on Fusarium oxysporum amounted to 64.5%.

As to `OCC1=C[C@H](N[C@H]2C[C@H](CO)[C@@H](O[C@@H]3O[C@H](CO)[C@@H](O)[C@H](O)[C@H]3O)[C@H](O)[C@H]2O)[C@H](O)[C@@H](O)[C@@H]1O` [VALIDAMYCIN], the inhibition of growth at 500 µg/mL in the assay with Rhizoctonia solani is 81%.
